Reference: the NIST ThermoML archive (doi:10.1016/j.jct.2013.03.027)
± gives the expanded uncertainty stated by the source.

Columns and labels:
[1] = xn = mol fraction of the nth substance listed; conditions: 101 kPa, Liquid, Archimedean displacement method, x1 = 0.5
[2] = Crystal; visual observation

| mass density ([1]; 1065 K) [kg/m3] | mass density ([1]; 1069 K) [kg/m3] | mass density ([1]; 1072 K) [kg/m3] | mass density ([1]; 1073 K) [kg/m3] | mass density ([1]; 1074 K) [kg/m3] | mass density ([1]; 1078 K) [kg/m3] | mass density ([1]; 1084 K) [kg/m3] | Normal melting temperature [2] [°C] | Structure (SMILES) |
| --- | --- | --- | --- | --- | --- | --- | --- | --- |
| 3670 ± 37 | 3669 ± 37 | 3664 ± 37 | 3663 ± 37 | 3660 ± 37 | 3657 ± 37 | 3652 ± 37 | – | [Ag][I] [silver iodide] + [Cl-].[Na+] |
| – | – | – | – | – | – | – | 559 ± 1 | [Ag][I] [silver iodide] |
| – | – | – | – | – | – | – | 801 ± 1 | [Cl-].[Na+] [sodium chloride] |
